How the values were obtained:
[1] = system: VERPE; experiment: Post-emergence action against VERPE, 1.28 kg/ha; type: in vivo, Veronica persica; details: dosage 1280 g/ha, visual rating about 3 weeks after treatment vs untreated controls (100% = plants died)
Outline: (§1)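 Greenhouse pot test, sandy loam; weeds sprayed post-emergence at one-leaf stage (2–3 weeks after sowing) with WP or EC formulation plus 0.5% additive, 600 l/ha water. Visual rating after about 3 weeks versus untreated controls, 100% = plants dead, 0% = like control.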

[2] = system: LOLRI; experiment: Pre-emergence action against LOLRI, 1280 g/ha; type: in vivo, Lolium rigidum; details: visual scoring after about 3 weeks vs untreated controls, 100% = plants have died, 0% = like control plants
Outline: (§2)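 Each pot was doubly sown in sandy loam and covered, then its soil surface was treated with compound suspension or emulsion containing 0.5% additive at 600 L/ha water. Plants grew in a greenhouse; effect was rated visually as percentages versus controls after about 3 weeks.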

[3] = system: ABUTH; experiment: Pre-emergence action against ABUTH, 1280 g/ha; type: in vivo, Abutilon theophrasti; details: scored visually after about 3 weeks vs untreated controls (100% = plants have died)
Outline: as §2

[4] = system: ECHCG; experiment: Post-emergence action at 320 g/ha against ECHCG; type: in vivo, Echinochloa crus-galli; details: dosage 320 g/ha, visual rating about 3 weeks after treatment vs untreated controls (100% = plants died)
Outline: (§3)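 Greenhouse-grown plants sprayed post-emergence at the one-leaf stage, 2 to 3 weeks after sowing, with WP or EC formulations plus 0.5% additive at 600 l/ha water, at 320 g/ha. Activity rated visually after about 3 weeks versus untreated controls (100% = plants died, 0% = like control).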

[5] = system: DIGSA; experiment: Pre-emergence action against DIGSA, 1280 g/ha; type: in vivo, Digitaria sanguinalis; details: visual scoring after about 3 weeks vs untreated controls, 100% = plants have died, 0% = like control plants
Outline: as §2

[6] = system: AMARE; experiment: Post-emergence action against AMARE, 1.28 kg/ha; type: in vivo, Amaranthus retroflexus; details: dosage 1280 g/ha, visual rating about 3 weeks after treatment vs untreated controls (100% = plants died)
Outline: as §1

[7] = system: SETVI; experiment: Post-emergence action against SETVI, 1.28 kg/ha; type: in vivo, Setaria viridis; details: dosage 1280 g/ha, visual rating about 3 weeks after treatment vs untreated controls
Outline: as §1

[8] = system: AVEFA; experiment: Post-emergence action at 320 g/ha against AVEFA; type: in vivo; details: visual rating about 3 weeks after treatment vs untreated controls
Outline: as §3

[9] = system: STEME; experiment: Post-emergence action against STEME, 1.28 kg/ha; type: in vivo, Stellaria media; details: dosage 1280 g/ha, visual rating about 3 weeks after treatment vs untreated controls (100% = plants died)
Outline: as §1

[10] = system: AMARE; experiment: Post-emergence action at 320 g/ha against AMARE; type: in vivo, Amaranthus retroflexus; details: visual rating about 3 weeks after treatment vs untreated controls
Description: Accordingly, the compounds of the invention have good herbicidal action against a broad spectrum of weed grasses and broad-leaved weeds and are therefore suitable for controlling unwanted vegetation by the post-emergence method. • b) Seeds of monocotyledonous and dicotyledonous weeds and crop plants are placed in sandy loam in plastic or organic planting pots, covered with soil and cultivated in a greenhouse under controlled growth conditions. 2 to 3 weeks after sowing, the test plants are treated at the one-leaf stage. The compounds of the invention, formulated in the form of wettable powders (WP) or as emulsion concentrates (EC), are then sprayed onto the green parts of the plants as aqueous suspension or emulsion with addition of 0.5% additive at a water application rate of 600 l/ha (converted). After the test plants have been kept in the greenhouse under optimum growth conditions for about 3 weeks, the activity of the preparations is rated visually in comparison to untreated controls. For example, 100% activity=the plants have died, 0% activity=like control plants. Tables 39 to 49 below show the effects of selected compounds of the general formula (I) according to Tables 1 and 2 on various harmful plants and at an application rate corresponding to 320 g/ha, which were obtained by the experimental procedure mentioned above.

[11] = system: KCHSC; experiment: Pre-emergence action against KCHSC, 1280 g/ha; type: in vivo, Bassia scoparia; details: scored visually after about 3 weeks vs untreated controls (100% = plants have died)
Outline: as §2

[12] = system: KCHSC; experiment: Post-emergence action against KCHSC, 1.28 kg/ha; type: in vivo, Bassia scoparia; details: dosage 1280 g/ha, visual rating about 3 weeks after treatment vs untreated controls (100% = plants died)
Outline: as §1

[13] = system: DIGSA; experiment: Post-emergence action at 320 g/ha against DIGSA; type: in vivo, Digitaria sanguinalis; details: dosage 320 g/ha, visual rating about 3 weeks after treatment vs untreated controls (100% = plants died)
Outline: as §3

SMILES	Post-emergence action against VERPE [1]	Pre-emergence action against LOLRI [2]	Pre-emergence action against ABUTH [3]	Post-emergence action at 320 g/ha against ECHCG in % [4]	Pre-emergence action against DIGSA [5]	Post-emergence action against AMARE [6]	Post-emergence action against SETVI [7]	Post-emergence action against AVEFA in % [8]	Post-emergence action against STEME [9]	Post-emergence action against AMARE in % [10]	Pre-emergence action against KCHSC [11]	Post-emergence action against KCHSC [12]	Post-emergence action at 320 g/ha against DIGSA in % [13]
COC(=O)CNC(=O)COc1nn(-c2ccccc2F)c(-c2ccc(F)nc2)c1C(F)(F)F [Example X-007]	90%	100%	90%	80%	100%	90%	100%	80%	100%	–	–	–	–
C[C@@H](Oc1nn(-c2ccccc2F)c(-c2cncnc2)c1Br)C(=O)O [VI-012]	90%	100%	90%	–	90%	90%	90%	90%	90%	80%	100%	90%	–
COC(=O)[C@@H](C)Oc1nn(-c2ccccc2)c(-c2cncnc2)c1Br [VI-013]	100%	100%	90%	–	100%	90%	90%	80%	100%	90%	100%	100%	90%
CCOC(=O)COc1nn(-c2ccccc2F)c(-c2ccc(F)nc2)c1I [VII-036]	100%	100%	90%	80%	100%	100%	90%	80%	100%	–	–	–	90%
O=C(O)COc1nn(-c2ccccc2F)c(-c2ccc(F)nc2)c1I [VII-037]	100%	100%	–	80%	100%	90%	90%	80%	100%	–	–	–	90%
COCCOC(=O)COc1nn(-c2ccccc2F)c(-c2ccc(F)nc2)c1Br [VII-052]	100%	100%	100%	–	100%	90%	90%	90%	100%	–	–	–	90%
CCOC(=O)C(C)Oc1nn(-c2ccccc2F)c(-c2ccc(F)nc2)c1I (centres unmarked) [VII-057]	90%	100%	90%	–	100%	100%	100%	–	–	–	100%	90%	90%
COC(=O)[C@@H](C)Oc1nn(-c2cc(F)ccc2F)c(-c2ccc(F)nc2)c1Br [VII-062]	100%	100%	90%	80%	100%	–	–	90%	100%	–	100%	90%	90%
CCOC(=O)C(C)Oc1nn(-c2ccccc2F)c(-c2ccc(F)nc2)c1C(F)(F)F (centres unmarked) [VII-066]	90%	100%	–	80%	100%	90%	90%	–	100%	–	–	90%	90%
COC(=O)COc1nn(-c2cc(F)ccc2F)c(-c2ccc(F)nc2)c1Br [VII-089]	90%	100%	–	–	100%	90%	–	80%	100%	80%	–	–	90%
O=C(COc1nn(-c2ccccc2F)c(-c2ccc(F)nc2)c1Br)OCC1CCOC1 (centres unmarked) [VII-091]	100%	100%	90%	–	100%	90%	90%	80%	90%	–	–	–	90%
O=C(COc1nn(-c2ccccc2F)c(-c2ccc(F)nc2)c1Br)OCC1OCCO1 [VII-103]	100%	100%	90%	80%	100%	90%	90%	80%	–	–	–	–	90%
COC(=O)[C@H](C)Oc1nn(-c2cc(F)ccc2F)c(-c2ccc(F)nc2)c1Br [VII-107]	100%	90%	–	80%	100%	100%	90%	–	100%	–	–	–	90%
CCOC(=O)COc1nn(-c2ccccc2F)c(-c2ccc(F)nc2)c1C [VII-117]	100%	100%	90%	–	100%	100%	–	90%	–	–	–	–	90%
COC(=O)[C@@H](C)Oc1nn(-c2cc(F)ccc2F)c(-c2cncc(F)c2)c1C#N [VII-147]	100%	100%	90%	80%	100%	100%	90%	80%	100%	–	100%	90%	–

— US12180187B2, “1-phenyl-5-azinylpyrazolyl-3-oxyalkyl acids and their use for controlling unwanted plant growth” (BAYER AKTIENGESELLSCHAFT, priority 2019, dated 2024)
